Consider 4 compounds from paper PMC5668658 (Biochemistry and Biophysics Reports, 2015).

The structures appear in SMILES notation.

Common to all, as to type: cell-based
In test [1] the target is T1, organic cation transporter 1 (OCT1/SLC22A1) (Homo sapiens, UniProt O15245).
T1 sequence (O15245 1-554): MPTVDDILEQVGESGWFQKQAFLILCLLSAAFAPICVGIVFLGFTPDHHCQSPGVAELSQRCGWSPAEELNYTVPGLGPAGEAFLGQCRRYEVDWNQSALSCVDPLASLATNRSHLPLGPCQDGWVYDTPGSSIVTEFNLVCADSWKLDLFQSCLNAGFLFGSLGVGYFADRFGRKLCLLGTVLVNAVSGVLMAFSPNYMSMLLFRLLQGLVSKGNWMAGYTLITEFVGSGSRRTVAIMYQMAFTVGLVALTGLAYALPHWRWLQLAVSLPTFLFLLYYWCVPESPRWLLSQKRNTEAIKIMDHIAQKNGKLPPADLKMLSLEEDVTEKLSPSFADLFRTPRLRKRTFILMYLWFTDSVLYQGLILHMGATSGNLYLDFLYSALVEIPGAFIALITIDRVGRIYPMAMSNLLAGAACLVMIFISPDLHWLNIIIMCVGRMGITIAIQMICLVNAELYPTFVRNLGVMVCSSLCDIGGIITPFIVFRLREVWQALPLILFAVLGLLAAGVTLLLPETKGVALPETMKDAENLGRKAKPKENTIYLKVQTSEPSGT
The test can be described thus: inhibition of OCT1-specific [3H]atenolol uptake at […] in MDCKII cells.

For test [2], the target named is T1, organic cation transporter 1 (OCT1/SLC22A1). The test can be described thus: inhibition of OCT1-specific [3H]atenolol uptake in MDCKII cells stably expressing OCT1.
For test [3] the target is unchanged. The test can be described thus: inhibition of OCT1-specific [3H]atenolol uptake in MDCKII cells stably expressing OCT1; MPP+ uptake also inhibited.

As for `O=c1cc(-c2ccccc2)oc2cc(O)c(O)c(O)c12` [Baicalein], in test [1], the “inhibition of OCT1-specific [3H]atenolol uptake at 100 μM in MDCKII cells” value was “exhibited the most potent inhibitory activity”.
On to `O=C(CCc1ccc(O)cc1)c1c(O)cc(O)cc1O[C@@H]1O[C@H](CO)[C@@H](O)[C@H](O)[C@H]1O` [Phlorizin], for which, in test [1], the “inhibition of OCT1-specific [3H]atenolol uptake at 100 μM in MDCKII cells” value was “also exhibited inhibitory activities comparable to those of their aglycones”.
In test [2], `O=C(CCc1ccc(O)cc1)c1c(O)cc(O)cc1O` [phloretin] displayed a Ki of 38 µM.
In test [3], `O=c1c(O)c(-c2ccc(O)c(O)c2)oc2cc(O)cc(O)c12` [quercetin] showed a Ki of 48 µM.
